Data on 8 molecules can be found in patent publication US8580778B2, “Substituted dihydropyrazolones and their use” (Bayer Intellectual Property GmbH, priority 2008, dated 2013).

The structures appear in SMILES notation. Where a name gives a salt, the structure may show the parent alone.

The assay has as its target HIF prolyl hydroxylase. As to the kind of experiment: Inhibition of the activity of HIF prolyl hydroxylase (VBC complex binding test). Type of assay: biochemical. The note with it: cell lysate containing prolyl hydroxylase. The method, then:
1.a) Inhibition of the Activity of HIF Prolyl Dydroxylase:
Hydroxylated HIF bonds specifically to the von Hippel-Lindau protein-elongin B-elongin C complex (VBC complex). This interaction occurs only if HIF is hydroxylated on a conserved prolyl radical. It is the basis for the biochemical determination of HIF prolyl hydroxylase activity. The test is carried out as described [Oehme F., Jonghaus W., Narouz-Ott L., Huetter J., Flamme I., Anal. Biochem. 330 (1), 74-80 (2004)]:
A clear 96-well microtiter plate coated with NeutrAvidin HBC (Pierce) is incubated with blocker casein for 30 minutes. The plate is then washed three times with 200 μl each time of wash buffer (50 mM Tris, pH 7.5, 100 mM NaCl, 10% (v/v) blocker casein, 0.05% (v/v) Tween 20) per well. The peptide biotin-DLDLEMLAPYIPMDDDFQL (Eurogentec, 4102 Seraing, Belgium) is added in a concentration of 400 nM in 100 μl wash buffer. This peptide serves as a substrate for the prolyl hydroxylation and is bonded to the microtiter plate. After incubation for 60 minutes, the plate is washed three times with wash buffer, incubated with 1 mM biotin in blocker casein for 30 minutes and then washed again three times with wash buffer.
To carry out the prolyl hydroxylase reaction, the peptide substrate bonded to the plate is incubated with a cell lysate containing prolyl hydroxylase for 1 to 60 minutes. The reaction takes place in 100 μl reaction buffer (20 mM Tris, pH 7.5, 5 mM KCl, 1.5 mM MgCl2, 1 μM-1 mM 2-oxoglutarate, 10 μM FeSO4, 2 mM ascorbate) at room temperature. The reaction mixture moreover contains various concentrations of the prolyl hydroxylase inhibitor to be tested. The test substance is preferably, but not exclusively, employed at concentrations of between 1 nM and 100 μM. The reaction is stopped by washing the plate three times with wash buffer.
For quantitative determination of the prolyl hydroxylation, a fusion protein which contains both thioredoxin from E. coli and the VBC complex in 80 μl bonding buffer (50 mM Tris, pH 7.5, 120 mM NaCl) is added. After 15 minutes, 10 μl of a solution of polyclonal anti-thioredoxin antibodies from rabbit in bonding buffer are added. After a further 30 minutes, 10 μl of a solution of anti-rabbit immunoglobulin coupled to horseradish peroxidase in bonding buffer are added. After incubation at room temperature for 30 minutes, the plate is washed three times with wash buffer in order to remove non-bonded VBC complex and antibodies. To determine the amount of bonded VBC complex, the plate is incubated with TMB for 15 minutes. The colour reaction is ended by addition of 100 μl 1 M sulphuric acid. The amount of bonded VBC complex is determined by measurement of the optical density at 450 nm. It is proportional to the amount of hydroxylated proline in the peptide substrate.
Alternatively, a VBC complex coupled to europium (Perkin Elmer) can be used for detection of the prolyl hydroxylation. In this case, the amount of bonded VBC complex is determined by the fluorescence with respect to time. The use of VBC complex labelled with [^35S]-methionine is moreover possible. For this, the radioactively labelled VBC complex can be prepared by in vitro transcription-translation in reticulocyte lysate.
Take `O=c1c(-n2ccnn2)c[nH]n1-c1cc(N2CCN(C3CCC3)CC2)ncn1` [Example 2, 2-[6-(4-Cyclobutylpiperazin-1-yl)pyrimidin-4-yl]-4-(1H-1,2,3-triazol-1-yl)-1,2-dihydro-3H-pyrazol-3-one]: the IC50 (as a rule, the point on the concentration scale where inhibition reaches its midpoint) was 880 nM.

On to `O=C(O)C1CN(c2cc(-n3[nH]cc(-n4ccnc4)c3=O)ncn2)C1` [Example 5, 1-{6-[4-(1H-Imidazol-1-yl)-5-oxo-2,5-dihydro-1H-pyrazol-1-yl]pyrimidin-4-yl}azetidine-3-carboxylic acid], for which the IC50 was determined as 540 nM.

As to `CN(C)C1CN(c2cc(-n3[nH]cc(-n4ccnn4)c3=O)ncn2)C1` [Example 9, 2-{6-[3-(Dimethylamino)azetidin-1-yl]pyrimidin-4-yl}-4-(1H-1,2,3-triazol-1-yl)-1,2-dihydro-3H-pyrazol-3-one dihydrochloride], the IC50 was 760 nM.

Regarding `N#Cc1cn(-c2c[nH]n(-c3cc(N4CCC(F)(F)C4)ncn3)c2=O)nn1` [Example 17, 1-{2-[6-(3,3-Difluoropyrrolidin-1-yl)pyrimidin-4-yl]-3-oxo-2,3-dihydro-1H-pyrazol-4-yl}-1H-1,2,3-triazole-4-carbonitrile], the IC50 came to 130 nM.

Molecule `N#Cc1cn(-c2c[nH]n(-c3cc(N4CC(F)(F)C4)ncn3)c2=O)nn1` [Example 21, 1-{2-[6-(3,3-Difluoroazetidin-1-yl)pyrimidin-4-yl]-3-oxo-2,3-dihydro-1H-pyrazol-4-yl}-1H-1,2,3-triazole-4-carbonitrile] came in with an IC50 of 70 nM.

`N#Cc1cn(-c2c[nH]n(-c3cc(N4CCCOCC4)ncn3)c2=O)cn1` [Example 25, 1-{2-[6-(1,4-Oxazepan-4-yl)pyrimidin-4-yl]-3-oxo-2,3-dihydro-1H-pyrazol-4-yl}-1H-imidazole-4-carbonitrile] had an IC50 of 180 nM.

`N#Cc1cn(-c2c[nH]n(-c3cc(N4CCCOCC4)ncn3)c2=O)nn1` [Example 26, 1-{2-[6-(1,4-Oxazepan-4-yl)pyrimidin-4-yl]-3-oxo-2,3-dihydro-1H-pyrazol-4-yl}-1H-1,2,3-triazole-4-carbonitrile] registered an IC50 of 380 nM. Compared with the last molecule, the IC50 is about 2.1-fold higher.

As to `N#Cc1cn(-c2c[nH]n(-c3cc(N4CCCCO4)ncn3)c2=O)nn1` [Example 29, 1-{2-[6-(1,2-Oxazinan-2-yl)pyrimidin-4-yl]-3-oxo-2,3-dihydro-1H-pyrazol-4-yl}-1H-1,2,3-triazole-4-carbonitrile], the IC50 is 170 nM.
